Data on 10 compounds can be found in ChEMBL document CHEMBL1201862, “PubChem BioAssay data set” (2004).

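Values below derive from 48-hour exposures of cells grown in 96-well plates, with endpoints linearly interpolated between the two concentrations bracketing the appropriate inhibition level. At the GI50, growth is halved.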 Activity calls are given as the source filed them. Cut-off read from the data, not from the text of the source: active = GI50 up to about 1.1 µM and inactive = higher.

What all share (assay): growth of human tumour cells (NCI), 48 h
In test [1] the test system is COLO 205.
Test [2] deals with SK-OV-3.
The subject of test [3] is KM12.
The test system of test [4] is HCT-15.
Test [5] deals with Hs-578T.
Test [6] deals with NCI-H522.
In test [7] the test system is HL-60.
The test system of test [8] is SR.
Test [9] has as its system BT-549.
Test [10] has as its system HCC 2998.
Test [11] has as its system SK-MEL-28.
For test [12], the system named is NCI/ADR-RES.
In test [13] the test system is SK-MEL-5.
The test system of test [14] is OVCAR-4.
The subject of test [15] is UACC-257.
Test [16] relates to NCI-H226.
The test system of test [17] is RXF 393.
Test [18] relates to M14.
In test [19] the test system is A549.
The test system of test [20] is HT-29.

As for `CC(C)N1CCN(c2ccncc2S(=O)(=O)N2CCCCC2)CC1`, the GI50 was > 100 µM (inactive) in [1]; > 100 µM (inactive) in test [2]; > 100 µM (inactive) in test [3]; greater than 100 µM in [4]; > 100 µM (inactive) in test [5]; > 100 µM (inactive) in [6]. Besides, the GI50 in [7], in test [8], in test [9], in test [10], in test [11] and in test [12] was > 100 µM (inactive) in each case. The GI50 in test [13], in [14], in test [15], in [16], in [17] and in test [18] was > 100 µM (inactive) throughout. The GI50 in test [19] and in [20] was > 100 µM (inactive) in each case.

As to `O=c1[nH]cc(/C=N\Nc2ccccc2)c(=O)[nH]1`, the GI50 is 66.2 µM (inactive) in test [1]; > 100 µM (inactive) in test [2]; > 100 µM (inactive) in test [3]; 36.3 µM in test [4]; > 100 µM (inactive) in [5]; > 100 µM (inactive) in [6]. For the same compound, the GI50 in test [7] is 5.78 µM (inactive); in test [8], > 100 µM (inactive); in test [9] it was > 100 µM (inactive); in [10], > 100 µM (inactive); in test [11], > 100 µM (inactive); in test [12], > 100 µM (inactive). The GI50 was 11.6 µM (inactive) in [13]; > 100 µM (inactive) in [14]; > 100 µM (inactive) in test [15]; > 100 µM (inactive) in test [16]; > 100 µM (inactive) in [17]; > 100 µM (inactive) in [18]. The GI50 in test [19] was > 100 µM (inactive); in test [20] it was 49.2 µM (inactive).

As for `COc1ccc2[nH]c3c(C)c4ccnc(NCCCN(C)CCCNc5ccc6ncn7c8ccccc8c(=O)c5c67)c4c(C)c3c2c1`, the GI50 in test [1] is 0.272 µM (active); in test [2], 2.29 µM (inactive); in test [3], 0.478 µM (active); in test [4], 0.21 µM; in [5], 3.15 µM (inactive); in test [6], 0.0524 µM (active). In addition, the GI50 in test [7] was 0.08 µM (active); in test [8], 0.0197 µM (active); in test [9], 1.06 µM (active); in test [10], 0.0578 µM (active); in test [11], 0.671 µM (active); in test [12], 0.664 µM (active). The GI50 in [13] is 0.573 µM (active); in test [14] it was 0.106 µM (active); in test [15] it was 0.723 µM (active); in [16], 0.082 µM (active); in test [17], 0.256 µM (active); in test [18] it was 0.998 µM (active). Besides, the GI50 is 0.106 µM (active) in [19] and 0.0141 µM (active) in test [20].

Turning to `CC1(C)Oc2ccccc2OC1O` (stereo not given), the GI50 in [1] is > 100 µM (inactive); in [2], > 100 µM (inactive); in test [3], > 100 µM (inactive); in [4], greater than 100 µM; in [5], > 100 µM (inactive); in test [6] it was > 100 µM (inactive). For the same compound, the GI50 in test [7], in [8], in [9], in test [10], in [11] and in test [12] was > 100 µM (inactive) throughout. The GI50 in test [13], in test [14], in test [15], in [16], in test [17] and in test [18] was > 100 µM (inactive) in each case. Also, the GI50 in [19] and in [20] was > 100 µM (inactive) throughout.

Regarding `Cc1ccc(S(=O)(=O)NN=C2CCCCCCCCCCC2)cc1`, the GI50 was > 100 µM (inactive) in test [1]; > 100 µM (inactive) in test [2]; > 100 µM (inactive) in [3]; greater than 100 µM in [4]; 35.7 µM (inactive) in test [5]; > 100 µM (inactive) in test [6]. Further, the GI50 in [7], in test [8], in test [9], in [10], in test [11] and in test [12] was > 100 µM (inactive) in each case. The GI50 in test [13] was > 100 µM (inactive); in test [14] it was > 100 µM (inactive); in [15], > 100 µM (inactive); in test [16] it was 38.4 µM (inactive); in [17], 58.1 µM (inactive); in test [18] it was > 100 µM (inactive). The GI50 in [19] and in [20] was > 100 µM (inactive) in each case.

On to `CCOC(=O)/C=C(/C(=O)OCC)n1ccc(=O)n(CC(=O)OCC)c1=O`, for which the GI50 in [1] was 0.284 µM (active); in test [2] it was 14.4 µM (inactive); in test [3] it was 2.57 µM (inactive); in test [4], 0.463 µM; in test [5], 4.9 µM (inactive); in test [6], 0.196 µM (active). In addition, the GI50 was 0.143 µM (active) in test [7]; 1.35 µM (inactive) in [8]; 2.08 µM (inactive) in test [9]; 2.36 µM (inactive) in test [10]; 1.68 µM (inactive) in test [11]; 2.63 µM (inactive) in test [12]. Besides, the GI50 in [13] is 2.36 µM (inactive); in test [14] it was 1.84 µM (inactive); in [15], 2.44 µM (inactive); in test [16] it was 2.22 µM (inactive); in [17] it was 1.15 µM (inactive); in test [18], 1.37 µM (inactive). The GI50 in test [19] is 6.17 µM (inactive); in test [20], 1.58 µM (inactive).

As for `Cc1ccc([N+](=O)[O-])cc1S(=O)(=O)Nc1ccc(C(=O)/C=C/c2ccccc2)cc1`, the GI50 is 20.6 µM (inactive) in [1]; 31.3 µM (inactive) in [2]; 16.7 µM (inactive) in [3]; 19.5 µM in test [4]; 50.6 µM (inactive) in [5]; 20.2 µM (inactive) in [6]. Moreover, the GI50 was 25.3 µM (inactive) in [7]; 22.1 µM (inactive) in [8]; 17.7 µM (inactive) in test [9]; 17.7 µM (inactive) in test [10]; 23.4 µM (inactive) in test [11]; 22 µM (inactive) in test [12]. For the same compound, the GI50 in test [13] was 16.3 µM (inactive); in test [14], 1.96 µM (inactive); in test [15] it was 17.3 µM (inactive); in test [16], 28.6 µM (inactive); in test [17], 11.4 µM (inactive); in [18], 20 µM (inactive). Further, the GI50 in test [19] was 23.3 µM (inactive); in [20], 25.4 µM (inactive).

On to `O=C(NO)c1cccc(OCc2ccc(Br)cc2)c1`, for which the GI50 is 8.11 µM (inactive) in [1]; 5.21 µM (inactive) in [2]; 5.4 µM (inactive) in [3]; 0.991 µM in test [4]; 13.1 µM (inactive) in test [5]; 1.41 µM (inactive) in test [6]. Further, the GI50 in test [7] was 3.01 µM (inactive); in test [8] it was 2.29 µM (inactive); in test [9], 7.71 µM (inactive); in test [10], 7.52 µM (inactive); in [11], 14.2 µM (inactive); in [12], 2.93 µM (inactive). Also, the GI50 is 3.98 µM (inactive) in [13]; 5.24 µM (inactive) in [14]; 10.5 µM (inactive) in [15]; 3.78 µM (inactive) in test [16]; 3.52 µM (inactive) in test [17]; 2.79 µM (inactive) in test [18]. For the same compound, the GI50 is 5.28 µM (inactive) in test [19] and 6.98 µM (inactive) in test [20].

For `CC1=C(O)C(=O)C=C2C1=CC=C1[C@@]2(C)CC[C@@]2(C)C3C[C@@H](C)C(=O)[C@@H](O)[C@]3(C)CC[C@]12C` (stereo not given in full), the GI50 is 1.71 µM (inactive) in test [1]; 9.04 µM (inactive) in test [2]; 5.86 µM (inactive) in test [3]; 1.91 µM in [4]; 4.18 µM (inactive) in [5]; 1.05 µM (active) in test [6]. Further, the GI50 in [7] was 0.641 µM (active); in [8] it was 0.3 µM (active); in [9] it was 1.75 µM (inactive); in test [10], 2.95 µM (inactive); in [11], 1.95 µM (inactive); in test [12], 2.97 µM (inactive). Also, the GI50 in test [13] was 3.35 µM (inactive); in test [14] it was 3.32 µM (inactive); in [15], 2.83 µM (inactive); in test [16], 4.44 µM (inactive); in [17], 1.9 µM (inactive); in test [18], 1.64 µM (inactive). The figures for the GI50 in test [19] and in test [20] were 13.9 µM (inactive) and 1.97 µM (inactive), respectively.

As for `COc1ccc(/C=C(\C#N)c2nc(-c3cc4ccccc4oc3=O)cs2)cc1`, the GI50 in test [1] was 50.6 µM (inactive); in test [2] it was 16.4 µM (inactive); in test [3], 24.3 µM (inactive); in test [4], 51.6 µM; in test [5] it was 24.6 µM (inactive); in test [6], 19.4 µM (inactive). Also, the GI50 in test [7] was > 100 µM (inactive); in test [8] it was > 100 µM (inactive); in test [9] it was 14.2 µM (inactive); in test [10] it was 32.6 µM (inactive); in test [11] it was 27.5 µM (inactive); in test [12] it was 27.2 µM (inactive). The GI50 in test [13] is 22.1 µM (inactive); in [14], 23.9 µM (inactive); in test [15], 31.8 µM (inactive); in test [16] it was 31.6 µM (inactive); in test [17], 21.1 µM (inactive); in test [18], 24.8 µM (inactive). Also, the results for the GI50 in test [19] and in test [20] were 32.3 µM (inactive) and 41.3 µM (inactive), respectively.
